Consider 27 compounds from US9630961B2, “Arginine methyltransferase inhibitors and uses thereof” (Epizyme, Inc., priority 2013, dated 2017).

Structures are written as SMILES. A value given as a limit tells only on which side of the number the result lay.

By IC50 is commonly meant the concentration at which inhibition is half-maximal. High values mean a need for much substance, low ones inhibition by little substance.

The target of this experiment is T1, PRMT1 (Homo sapiens, UniProt Q99873).
T1 construct: GST-tagged PRMT1; made in house; host or cells: High Five insect cells (baculovirus)
T1 sequence (Q99873 with tags, fused parts or gaps): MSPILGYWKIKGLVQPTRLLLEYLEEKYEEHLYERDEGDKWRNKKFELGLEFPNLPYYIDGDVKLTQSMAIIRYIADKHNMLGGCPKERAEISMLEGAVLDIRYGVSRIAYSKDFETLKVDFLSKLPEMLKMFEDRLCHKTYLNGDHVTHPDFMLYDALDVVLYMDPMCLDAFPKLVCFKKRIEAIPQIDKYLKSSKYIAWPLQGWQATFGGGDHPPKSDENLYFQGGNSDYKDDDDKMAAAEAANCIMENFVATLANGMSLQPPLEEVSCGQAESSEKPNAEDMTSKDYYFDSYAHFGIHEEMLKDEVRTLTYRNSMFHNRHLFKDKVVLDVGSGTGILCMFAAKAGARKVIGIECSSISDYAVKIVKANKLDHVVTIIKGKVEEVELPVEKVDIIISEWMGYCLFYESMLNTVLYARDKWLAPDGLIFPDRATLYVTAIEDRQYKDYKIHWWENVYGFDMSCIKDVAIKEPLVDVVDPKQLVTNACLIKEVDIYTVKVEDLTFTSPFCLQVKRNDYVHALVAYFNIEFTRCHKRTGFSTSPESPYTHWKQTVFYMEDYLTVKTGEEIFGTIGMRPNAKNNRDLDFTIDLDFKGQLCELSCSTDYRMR
Briefly: PRMT1 Biochemical Assay (3H-SAM Flashplate, peptide substrate). Particulars: 30 min preincubation, room temperature. The source says: S-adenosylmethionine (SAM), S-adenosylhomocysteine (SAH), bicine, Tween20, dimethylsulfoxide (DMSO), bovine skin gelatin (BSG), and Tris(2-carboxyethyl)phosphine hydrochloride solution (TCEP) were purchased from Sigma-Aldrich at the highest level of purity possible. ^3H-SAM was purchase from American Radiolabeled Chemicals with a specific activity of 80 Ci/mmol. 384-well streptavidin Flashplates were purchased from PerkinElmer.
Peptide representative of human histone H4 residues 36-50 was synthesized with an N-terminal linker-affinity tag motif and a C-terminal amide cap by 21st Century Biochemicals. The peptide was purified by high-performance liquid chromatography (HPLC) to greater than 95% purity and confirmed by liquid chromatography mass spectrometry (LC-MS). The sequence was Biot-Ahx-[…]-amide (SEQ ID NO.: 1).
Full-length human PRMT1 isoform 1 (NM_001536.5) transcript clone was amplified from an HEK 293 cDNA library, incorporating flanking 5′ sequence encoding a FLAG tag ([…]) (SEQ ID NO.:2) fused directly to Met 1 of PRMT1. The amplified gene was subcloned into pFastBacI (Life Technologies) modified to encode an N-terminal GST tag and a TEV cleavage sequence ([…] […] […] […]) (SEQ ID NO.:3) fused to Asp of the Flag tag of PRMT1.
Recombinant baculovirus were generated according to Bac-to-Bac kit instructions (Life Technologies). Protein over-expression was accomplished by infecting exponentially growing High Five insect cell culture at 1.5×10^6 cell/ml with 1:100 ratio of virus. Infections were carried out at 27° C. for 48 hours, harvested by centrifugation, and stored at −80° C. for purification.
General Procedure for PRMT1 Enzyme Assays on Peptide Substrates.
The assays were all performed in a buffer consisting of 20 mM Bicine (pH=7.6), 1 mM TCEP, 0.005% BSG, and 0.002% Tween 20, prepared on the day of use. Compounds in 100% DMSO (1 ul) were spotted into a polypropylene 384-well V-bottom plates (Greiner) using a Platemate Plus outfitted with a 384-channel head (Thermo Scientific). DMSO (1 ul) was added to Columns 11, 12, 23, 24, rows A-H for the maximum signal control and 1 ul of SAH, a known product and inhibitor of PRMT1, was added to columns 11, 12, 23, 24, rows I-P for the minimum signal control. A cocktail (40 ul) containing the PRMT1 enzyme was added by Multidrop Combi (Thermo-Fisher). The compounds were allowed to incubate with PRMT1 for 30 min at room temperature, then a cocktail (10 ul) containing SAM and peptide was added to initiate the reaction (final volume=51 ul). The final concentrations of the components were as follows: PRMT1 was 0.5 nM, ^3H-SAM was 200 nM, non-radiolabeled SAM was 1.5 uM, peptide was 20 nM, SAH in the minimum signal control wells was 1 mM, and the DMSO concentration was 2%. The assays were stopped by the addition of non-radiolabeled SAM (10 ul) to a final concentration of 300 uM, which dilutes the ^3H-SAM to a level where its incorporation into the peptide substrate is no longer detectable. 50 ul of the reaction in the 384-well polypropylene plate was then transferred to a 384-well Flashplate and the biotinylated peptides were allowed to bind to the streptavidin surface for at least 1 hour before being washed once with 0.1% Tween20 in a Biotek ELx405 plate washer. The plates were then read in a PerkinElmer TopCount plate reader to measure the quantity of ^3H-labeled peptide bound to the Flashplate surface, measured as disintegrations per minute (dpm) or alternatively, referred to as counts per minute (cpm).
Where dpm=disintegrations per minute, cmpd=signal in assay well, and min and max are the respective minimum and maximum signal controls.
Where top and bottom are the normally allowed to float, but may be fixed at 100 or 0 respectively in a 3-parameter fit. The Hill Coefficient normally allowed to float but may also be fixed at 1 in a 3-parameter fit. Y is the % inhibition and X is the compound concentration.
As to `CN(CCN)Cc1c[nH]nc1-c1ccsc1` [Compound 3], the IC50 lay within 101 to 1000 nM.
With `CN(CCN)Cc1c[nH]nc1-c1cncnc1` [Compound 4], the IC50 lay within 101 to 1000 nM.
The figure for `CN(CCN)Cc1c[nH]nc1-c1cccs1` [Compound 5] is 101 to 1000 nM; for `CN(CCN)Cc1c[nH]nc1-c1ccco1` [Compound 6] it is 101 to 1000 nM.
With `CN(CCN)Cc1c[nH]nc1-c1ccoc1` [Compound 7] the figure was 101 to 1000 nM; with `CN(CCN)Cc1c[nH]nc1-c1cnn(C)c1` [Compound 8], 101 to 1000 nM.
Turning to `CN(CCN)Cc1c[nH]nc1-c1ccc2scnc2c1` [Compound 9], the IC50 was no more than 100 nM.
As to `Cc1noc(C)c1-c1n[nH]cc1CN(C)CCN` [Compound 10], the IC50 was no less than 10000 nM.
The figure for `COc1ncc(-c2n[nH]cc2CN(C)CCN)cn1` [Compound 11] is 101 to 1000 nM; for `CN(CCN)Cc1c[nH]nc1-c1cn[nH]c1` [Compound 12] it is 101 to 1000 nM; for `CN(CCN)Cc1c[nH]nc1-c1cnc2[nH]ccc2c1` [Compound 13] it is no more than 100 nM.
In turn, `CN(CCN)Cc1c[nH]nc1-c1cc[nH]n1` [Compound 14] registered an IC50 of 1010 to 3000 nM.
In turn, `CN(CCN)Cc1c[nH]nc1-c1ccnn1C` [Compound 15] showed an IC50 of 1010 to 3000 nM.
The compound `CCn1cc(-c2n[nH]cc2CN(C)CCN)cn1` [Compound 16] gave a concentration for half-maximal inhibition (IC50) of no more than 100 nM.
In the case of `CN(CCN)Cc1c[nH]nc1-c1cnn(-c2ccccc2)c1` [Compound 17], the IC50 was no more than 100 nM.
On to `CN(CCN)Cc1c[nH]nc1-c1cnn(CCO)c1` [Compound 18], for which the IC50 fell in the range of 101 to 1000 nM.
As to `CN(CCN)Cc1c[nH]nc1-c1ccc2cnn(C)c2c1` [Compound 19, N^1-methyl-N^1-((3-(1-methyl-1H-indazol-6-yl)-1H-pyrazol-4-yl)methyl)ethane-1,2-diamine], the IC50 is no more than 100 nM.
`CN(CCN)Cc1c[nH]nc1-c1ccc2ncnn2c1` [Compound 20] registered an IC50 of no more than 100 nM.
As for `CN(CCN)Cc1c[nH]nc1-c1ccc2nccn2c1` [Compound 21, N^1-((3-(imidazo[1,2-a]pyridin-6-yl)-1H-pyrazol-4-yl)methyl)-N^1-methylethane-1,2-diamine], the IC50 is no more than 100 nM.
In turn, `CC(C)n1cc(-c2n[nH]cc2CN(C)CCN)cn1` [Compound 22] had an IC50 of no more than 100 nM.
For `CC(C)Cn1cc(-c2n[nH]cc2CN(C)CCN)cn1` [Compound 23, N^1-((2′-isobutyl-3,4′-bi(1H-pyrazol)-4-yl)methyl)-N^1-methylethane-1,2-diamine], the IC50 is no more than 100 nM.
Turning to `CN(CCN)Cc1c[nH]nc1-c1cnn(Cc2ccccc2)c1` [Compound 24, N^1-((1′-benzyl-3,4′-bi(1H-pyrazol)-4-yl)methyl)-N^1-methylethane-1,2-diamine], the IC50 is no more than 100 nM.
The figure for `Cc1n[nH]c(C)c1-c1n[nH]cc1CN(C)CCN` [Compound 25] is no less than 10000 nM; for `CN(CCN)Cc1c[nH]nc1-c1ccc2[nH]ncc2c1` [Compound 27, N^1-((3-(1H-indazol-5-yl)-1H-pyrazol-4-yl)methyl)-N^1-methylethane-1,2-diamine] it is no more than 100 nM.
`CN(CCN)Cc1c[nH]nc1-c1cnc(C2CC2)nc1` [Compound 28] came in with an IC50 of 101 to 1000 nM.
With `CN(CCN)Cc1c[nH]nc1-c1ccc[nH]1` [Compound 29] the figure was 1010 to 3000 nM; with `CN(CCN)Cc1c[nH]nc1-c1cccc2[nH]ncc12` [Compound 30], 101 to 1000 nM.
